Experimental data taken from patent publication US12077503B2, “Substituted cyclic amides and their use as herbicides” (FMC CORPORATION, priority 2015, dated 2024).

How the values were obtained:
Format in all cases: in vivo
[1] = test system: barnyardgrass (Echinochloa crus-galli); assay: Test G Pre-Emergence Protocol; conditions: Echinochloa crus-galli, pre-emergence, 312 h, evaluated after 13 days; for pest or weed control at 15.625 g/ha: 15.625 g ai/ha, read-out: Barnyard grass damage rating (100=total damage to plant; 0=no damage to plant); for pest or weed control at 62.5 g/ha: 62.5 g ai/ha, 100=total damage to plant, 0=no damage to plant, read-out: plant damage rating, Barnyardgrass; for pest or weed control at 250 g/ha: 250 g ai/ha, read-out: Barnyardgrass damage rating (100=total damage to plant; 0=no damage to plant)
How it was run: (§1)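 Scores are visual damage ratings from 0 (no damage) to 100 (total plant kill), taken 13 days after treatment. Compound was sprayed one day post-sowing at 15.625, 62.5 or 250 g/ha in 50:50 acetone/water with 0.5% Tween 20.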

corn (Zea mays) [2] = assay: Test G Pre-Emergence Protocol; conditions: Zea mays, pre-emergence, 312 h, evaluated after 13 days; for plant injury at 15.625 g/ha: 15.625 g ai/ha; for plant injury at 15.625 g/ha / plant injury at 250 g/ha: read-out: Corn damage rating (100=total damage to plant; 0=no damage to plant); for plant injury at 62.5 g/ha: 62.5 g ai/ha, 100=total damage to plant, 0=no damage to plant, read-out: plant damage rating, Corn; for plant injury at 250 g/ha: 250 g ai/ha
How it was run: as §1

[3] = test system: giant foxtail (Setaria faberi); assay: Test G Pre-Emergence Protocol; conditions: Setaria faberi, pre-emergence, 312 h, evaluated after 13 days; for pest or weed control at 15.625 g/ha: 15.625 g ai/ha; for pest or weed control at 15.625 g/ha / pest or weed control at 250 g/ha: read-out: Foxtail, Giant damage rating (100=total damage to plant; 0=no damage to plant); for pest or weed control at 62.5 g/ha: 62.5 g ai/ha, 100=total damage to plant, 0=no damage to plant, read-out: plant damage rating, Foxtail, Giant; for pest or weed control at 250 g/ha: 250 g ai/ha
How it was run: as §1

[4] = test system: ivy-leaved morning glory (Ipomoea hederacea); assay: Test G Pre-Emergence Protocol; conditions: Ipomoea, pre-emergence, 312 h, evaluated after 13 days; for pest or weed control at 15.625 g/ha: 15.625 g ai/ha, read-out: Morning-glory, Ivy-leaved damage rating (100=total damage to plant; 0=no damage to plant); for pest or weed control at 62.5 g/ha: 62.5 g ai/ha, 100=total damage to plant, 0=no damage to plant, read-out: plant damage rating, Morningglory, Ivy-leaved; for pest or weed control at 250 g/ha: 250 g ai/ha, read-out: Morningglory, Ivy-leaved damage rating (100=total damage to plant; 0=no damage to plant)
How it was run: as §1

[5] = test system: redroot pigweed (Amaranthus retroflexus); assay: Test G Pre-Emergence Protocol; conditions: Amaranthus retroflexus, pre-emergence, 312 h, evaluated after 13 days; for pest or weed control at 15.625 g/ha: 15.625 g ai/ha; for pest or weed control at 15.625 g/ha / pest or weed control at 250 g/ha: read-out: Pigweed, Redroot damage rating (100=total damage to plant; 0=no damage to plant); for pest or weed control at 62.5 g/ha: 62.5 g ai/ha, 100=total damage to plant, 0=no damage to plant, read-out: plant damage rating, Pigweed, Redroot; for pest or weed control at 250 g/ha: 250 g ai/ha
How it was run: as §1

[6] = test system: velvetleaf (Abutilon theophrasti); assay: Test G Pre-Emergence Protocol; conditions: Abutilon theophrasti, pre-emergence, 312 h, evaluated after 13 days; for pest or weed control at 15.625 g/ha: 15.625 g ai/ha; for pest or weed control at 15.625 g/ha / pest or weed control at 250 g/ha: read-out: Velvetleaf damage rating (100=total damage to plant; 0=no damage to plant); for pest or weed control at 62.5 g/ha: 62.5 g ai/ha, 100=total damage to plant, 0=no damage to plant, read-out: plant damage rating, Velvetleaf; for pest or weed control at 250 g/ha: 250 g ai/ha
How it was run: as §1

[7] = test system: barnyardgrass (Echinochloa crus-galli); assay: Test G Post-Emergence Protocol; conditions: Echinochloa crus-galli, post-emergence, 312 h; for pest or weed control at 15.625 g/ha: 15.625 g ai/ha, evaluated after 13 days (100=total damage to plant; 0=no damage to plant), read-out: Barnyardgrass damage rating; for pest or weed control at 62.5 g/ha: 62.5 g ai/ha, read-out: Barnyardgrass damage rating (100=total damage to plant; 0=no damage to plant); for pest or weed control at 62.5 g/ha / pest or weed control at 250 g/ha: evaluated after 13 days; for pest or weed control at 250 g/ha: 250 g ai/ha, read-out: damage to plant, Barnyardgrass (100=total damage to plant; 0=no damage to plant)
How it was run: (§2)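 Damage was rated 13 days after treatment from 0 (none) to 100 (plant killed). Compound was applied as a spray at 15.625, 62.5 or 250 g/ha in 50:50 acetone/water containing 0.5% Tween 20, onto 8-day-old potted plants kept in a glasshouse (24/16 °C, 14 h light, 65% humidity).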

corn (Zea mays) [8] = assay: Test G Post-Emergence Protocol; conditions: Zea mays, post-emergence, 312 h; for plant injury at 15.625 g/ha: 15.625 g ai/ha, evaluated after 13 days (100=total damage to plant; 0=no damage to plant), read-out: Corn damage rating; for plant injury at 62.5 g/ha: 62.5 g ai/ha, read-out: Corn damage rating (100=total damage to plant; 0=no damage to plant); for plant injury at 62.5 g/ha / plant injury at 250 g/ha: evaluated after 13 days; for plant injury at 250 g/ha: 250 g ai/ha, read-out: damage to plant, Corn (100=total damage to plant; 0=no damage to plant)
How it was run: as §2

[9] = test system: giant foxtail (Setaria faberi); assay: Test G Post-Emergence Protocol; conditions: Setaria faberi, post-emergence, 312 h; for pest or weed control at 15.625 g/ha: 15.625 g ai/ha, evaluated after 13 days (100=total damage to plant; 0=no damage to plant), read-out: Foxtail, Giant damage rating; for pest or weed control at 62.5 g/ha: 62.5 g ai/ha, read-out: Foxtail, Giant damage rating (100=total damage to plant; 0=no damage to plant); for pest or weed control at 62.5 g/ha / pest or weed control at 250 g/ha: evaluated after 13 days; for pest or weed control at 250 g/ha: 250 g ai/ha, read-out: damage to plant, Foxtail, Giant (100=total damage to plant; 0=no damage to plant)
How it was run: as §2

[10] = test system: ivy-leaved morning glory (Ipomoea hederacea); assay: Test G Post-Emergence Protocol; conditions: Ipomoea, post-emergence, 312 h; for pest or weed control at 15.625 g/ha: 15.625 g ai/ha, evaluated after 13 days (100=total damage to plant; 0=no damage to plant), read-out: Morningglory, Ivy-leaved damage rating; for pest or weed control at 62.5 g/ha: 62.5 g ai/ha, read-out: Morningglory, Ivy-leaved damage rating (100=total damage to plant; 0=no damage to plant); for pest or weed control at 62.5 g/ha / pest or weed control at 250 g/ha: evaluated after 13 days; for pest or weed control at 250 g/ha: 250 g ai/ha, read-out: damage to plant, Morningglory, Ivy-leaved (100=total damage to plant; 0=no damage to plant)
How it was run: as §2

[11] = test system: redroot pigweed (Amaranthus retroflexus); assay: Test G Post-Emergence Protocol; conditions: Amaranthus retroflexus, post-emergence, 312 h; for pest or weed control at 15.625 g/ha: 15.625 g ai/ha, evaluated after 13 days (100=total damage to plant; 0=no damage to plant), read-out: Pigweed, Redroot damage rating; for pest or weed control at 62.5 g/ha: 62.5 g ai/ha, read-out: Pigweed, Redroot damage rating (100=total damage to plant; 0=no damage to plant); for pest or weed control at 62.5 g/ha / pest or weed control at 250 g/ha: evaluated after 13 days; for pest or weed control at 250 g/ha: 250 g ai/ha, read-out: damage to plant, Pigweed, Redroot (100=total damage to plant; 0=no damage to plant)
How it was run: as §2

[12] = test system: velvetleaf (Abutilon theophrasti); assay: Test G Post-Emergence Protocol; conditions: Abutilon theophrasti, post-emergence, 312 h; for pest or weed control at 15.625 g/ha: 15.625 g ai/ha, evaluated after 13 days (100=total damage to plant; 0=no damage to plant), read-out: Velvetleaf damage rating; for pest or weed control at 62.5 g/ha: 62.5 g ai/ha, read-out: Velvetleaf damage rating (100=total damage to plant; 0=no damage to plant); for pest or weed control at 62.5 g/ha / pest or weed control at 250 g/ha: evaluated after 13 days; for pest or weed control at 250 g/ha: 250 g ai/ha, read-out: damage to plant, Velvetleaf (100=total damage to plant; 0=no damage to plant)
How it was run: as §2

SMILES	pest or weed control at 15.625 g/ha [1] [%]	pest or weed control at 62.5 g/ha [1] [%]	pest or weed control at 250 g/ha [1] [%]	plant injury at 15.625 g/ha (corn (Zea mays) [2]) [%]	plant injury at 62.5 g/ha (corn (Zea mays) [2]) [%]	plant injury at 250 g/ha (corn (Zea mays) [2]) [%]	pest or weed control at 15.625 g/ha [3] [%]	pest or weed control at 62.5 g/ha [3] [%]	pest or weed control at 250 g/ha [3] [%]	pest or weed control at 15.625 g/ha [4] [%]	pest or weed control at 62.5 g/ha [4] [%]	pest or weed control at 250 g/ha [4] [%]	pest or weed control at 15.625 g/ha [5] [%]	pest or weed control at 62.5 g/ha [5] [%]	pest or weed control at 250 g/ha [5] [%]	pest or weed control at 15.625 g/ha [6] [%]	pest or weed control at 62.5 g/ha [6] [%]	pest or weed control at 250 g/ha [6] [%]	pest or weed control at 15.625 g/ha [7] [%]	pest or weed control at 62.5 g/ha [7] [%]	further results
CN1C[C@H](c2ccc(C(F)(F)F)cc2)[C@@H](C(=O)NC2=NOC(C)(C)C2)C1=O (racemic) [Compound 1427]	0	0	0	0	0	0	0	0	0	0	0	0	0	0	0	0	0	0	0	0	pest or weed control at 250 g/ha [7]: 0%; plant injury at 15.625 g/ha (corn (Zea mays) [8]): 0%; plant injury at 62.5 g/ha (corn (Zea mays) [8]): 0%; plant injury at 250 g/ha (corn (Zea mays) [8]): 0%; pest or weed control at 15.625 g/ha [9]: 0%; pest or weed control at 62.5 g/ha [9]: 0%; pest or weed control at 250 g/ha [9]: 0%; pest or weed control at 15.625 g/ha [10]: 0%; pest or weed control at 62.5 g/ha [10]: 0%; pest or weed control at 250 g/ha [10]: 0%; pest or weed control at 15.625 g/ha [11]: 0%; pest or weed control at 62.5 g/ha [11]: 0%; pest or weed control at 250 g/ha [11]: 0%; pest or weed control at 15.625 g/ha [12]: 0%; pest or weed control at 62.5 g/ha [12]: 0%; pest or weed control at 250 g/ha [12]: 0%
CN1C[C@H](c2ccc(C(F)(F)F)cc2)[C@@H](C(=O)Nc2cccc3nsnc23)C1=O (racemic) [Compound 1430]	0	20	60	0	0	0	10	50	80	0	0	0	0	0	0	0	0	0	0	0	pest or weed control at 250 g/ha [7]: 30%; plant injury at 15.625 g/ha (corn (Zea mays) [8]): 0%; plant injury at 62.5 g/ha (corn (Zea mays) [8]): 0%; plant injury at 250 g/ha (corn (Zea mays) [8]): 0%; pest or weed control at 15.625 g/ha [9]: 0%; pest or weed control at 62.5 g/ha [9]: 10%; pest or weed control at 250 g/ha [9]: 50%; pest or weed control at 15.625 g/ha [10]: 0%; pest or weed control at 62.5 g/ha [10]: 0%; pest or weed control at 250 g/ha [10]: 0%; pest or weed control at 15.625 g/ha [11]: 0%; pest or weed control at 62.5 g/ha [11]: 0%; pest or weed control at 250 g/ha [11]: 20%; pest or weed control at 15.625 g/ha [12]: 0%; pest or weed control at 62.5 g/ha [12]: 0%; pest or weed control at 250 g/ha [12]: 0%
